According to patent US11517556B2, “Composition for BKCa channel activation” (GWANGJU INSTITUTE OF SCIENCE AND TECHNOLOGY, priority 2016, dated 2022):

Columns and labels:
[1] = tested on: spontaneous hypertensive rats (SHR); assay: Voiding behavior of spontaneous hypertensive rats (SHR); assay type: in vivo, rat
Experimental: The voiding frequency was monitored for 3 hours. FIG. 9B represents a total number of voidings. Each symbol or bar represents average±SEM of 5 (WKY) or 7 (SHR) animals (*** P<0.001).
The cumulative voiding frequency is shown in FIG. 9A for WKY and SHR orally administered with kurarinone. The administration of kurarinone may allow distinct differences in voiding frequency to be evident between WKY and SHR. […] In the WKY control rat, the decrease of the voiding frequency was not observed.

[2] = target: T1, mutant BKCa channel (G803D/N806K) (Rattus norvegicus, UniProt Q62976, G803D/N806K); assay: Cell-based TI+ fluorescence (FluxOR) assay in AD-293 cells
T1 construct: expressed in transfected cells
T1 sequence (Q62976 whole entry G803D/N806K): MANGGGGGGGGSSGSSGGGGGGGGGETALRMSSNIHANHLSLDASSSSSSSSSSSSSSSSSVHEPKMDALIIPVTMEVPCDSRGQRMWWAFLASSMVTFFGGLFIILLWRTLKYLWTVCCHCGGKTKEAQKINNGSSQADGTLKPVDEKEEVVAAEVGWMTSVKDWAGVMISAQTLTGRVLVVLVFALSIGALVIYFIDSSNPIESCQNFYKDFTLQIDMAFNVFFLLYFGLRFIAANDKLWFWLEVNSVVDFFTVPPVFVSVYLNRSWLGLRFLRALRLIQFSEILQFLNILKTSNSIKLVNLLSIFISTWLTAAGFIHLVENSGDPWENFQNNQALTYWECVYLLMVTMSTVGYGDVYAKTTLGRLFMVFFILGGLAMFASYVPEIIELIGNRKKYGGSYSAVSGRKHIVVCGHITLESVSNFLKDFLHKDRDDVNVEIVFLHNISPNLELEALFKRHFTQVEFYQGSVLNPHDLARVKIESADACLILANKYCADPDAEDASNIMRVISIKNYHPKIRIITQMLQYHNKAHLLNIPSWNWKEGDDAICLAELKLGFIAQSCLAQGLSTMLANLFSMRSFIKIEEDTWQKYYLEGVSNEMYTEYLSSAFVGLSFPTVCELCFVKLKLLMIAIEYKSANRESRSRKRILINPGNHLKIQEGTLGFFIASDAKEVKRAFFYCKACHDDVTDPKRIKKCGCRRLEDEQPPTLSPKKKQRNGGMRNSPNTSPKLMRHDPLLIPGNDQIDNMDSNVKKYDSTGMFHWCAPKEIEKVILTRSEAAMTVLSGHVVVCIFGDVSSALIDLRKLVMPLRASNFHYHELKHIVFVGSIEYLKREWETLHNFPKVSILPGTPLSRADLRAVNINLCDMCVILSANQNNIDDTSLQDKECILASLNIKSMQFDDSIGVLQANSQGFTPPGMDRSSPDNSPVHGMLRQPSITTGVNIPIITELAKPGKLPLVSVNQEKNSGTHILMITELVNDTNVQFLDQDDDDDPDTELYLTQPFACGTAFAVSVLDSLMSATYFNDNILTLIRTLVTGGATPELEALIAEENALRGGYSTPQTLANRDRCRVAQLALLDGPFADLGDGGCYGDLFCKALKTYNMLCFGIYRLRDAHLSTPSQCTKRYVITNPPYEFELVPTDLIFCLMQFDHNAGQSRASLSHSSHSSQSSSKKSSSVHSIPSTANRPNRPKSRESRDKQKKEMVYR
Experimental: AD-293 cells (Lee et al., 2013), as a modified HEK293 cell for expressing a mutant BKCa channel, were placed in DMEM (Dulbecco's Modified Eagle's medium) supplemented with 10% fetal bovine serum and 1 mg/ml geneticin (Gibco) as an antibiotic. The cells were cultured under a humidified condition of 5% CO2 and 37° C.
AD-293 cells stably expressing the mutant BKCa channel (G803D/N806K) were used for cell-based assays (Lee et al., 2013). Approximately 20,000 cells/well were inoculated on a black-wall assay plate (Corning Incorporated) coated with poly-D-lysine (Sigma-Aldrich), which is 96-well clear-bottom. A FluxOR™ […] (Invitrogen) was used for initial screening of compound libraries, and for further assay of candidate compounds. Experiments were performed according to the manufacturer's following guidelines: growth medium was replaced with 80 μl/well of loading buffer containing FluxOR™ fluorescent dye, and incubation was carried out for 1 hour under a light-free condition. After the incubation, the loading buffer was replaced with 100 μl/well of assay buffer containing various concentrations of compounds of interest, followed by incubation for 20 minutes to 30 minutes. DMSO (1%) was vehicle and the vehicle was used for all test compounds. CTBIC (Cormemis et al. 2005; Lee et al. 2012), previously identified as an activator of the BKCa channel, was used as a positive control. For fluorescence measurements, synergy TM H1 hybrid multi-mode microplate reader (BioTek Instrument Inc., Winnoski, Vt.) and Cen5 software was used in initial screening. For additional assays, Flexstation 3 multi-mode microplate reader (Molecular Devices) and SoftMax®Pro software were used, respectively. A fluorescence signal was obtained at an excitation wavelength of 485 nm and an emission wavelength of 528 nm. Membrane polarization was induced by a stimulus buffer containing thallium ion. The fluorescence signal was measured under two conditions: every 10 seconds for 2 minutes before treating the stimulation buffer and then every 10 seconds for 3 minutes after addition of stimulation buffer for synergy H1, and every 2 seconds for 20 seconds before stimulus buffer treatment, and then every 2 seconds for 160 seconds after adding the stimulus buffer for FlexStation 3.
A fluorescence signal change was measured based on a relative fluorescence unit (RFU) or F/F0 where F0 is ta minimum fluorescence value of each fluorescence trace. To quantitatively compare activation effects of kurarinone and its derivatives, an initial fluorescence increase was calculated using first three points after treatment with the stimulation buffer, and a linear slope was predicted using OriginPro 9.1 (OriginLab Corp., Northampton, Mass.).

[3] = tested on: rat bladder strips; assay: Isometric tension recording of bladder smooth muscle strips (ACh-induced contraction); conditions: 100 μM, 30 min pre-incubation, 1 μM ACh, compared to vehicle, n=6
Experimental: […] tension recording of UBSM experiment was performed by a known method (Dela Pena et al. 2009; Kullmann et al. 2014). In short, a male Sprague-Dawley rat (300-350 g) was euthanized by CO2 choking. Then, the bladder of the rat was excised. The bladder was longitudinally divided into four strips (approximately 2×8 mm). Each separated strip was clipped between a static mount and a force-displacement transducer. Then, the clipped strips were suspended in a temperature-controlled (37° C.) organ bath containing 10 ml of Krebs solution ((mM): 118.4 NaCl, 4.7 KCl, 1.2 KH2PO4, 1.2 MgSO4, 25.0 NaHCO3, 2.5 CaCl2, and 12.2 glucose; pH 7.35-7.40). Then, a mixture of 95% 02 and 5% CO2 was used to continuously generate bubbles in the organ bath. Each UBSM strip was stretched to 1.0 gram of an optimal isometric tension, and was equilibrated for 60 minutes. […] After reaching the equilibration, the strips were stabilized via repeated application of acetylcholine (1 μM) until a continuous reaction was recorded. […] Relaxation was expressed as a percentage reduction in the tension due to acetylcholine-induced contraction. […] Changes in the isometric tension were recorded using a Power Lab Data Acquisition System (ADInstruments) associated with a computer with Lab Chart Software (Version 7, AD Instruments) installed therein. […]

C=C(C)[C@H](CC=C(C)C)Cc1c(O)cc(OC)c2c1O[C@H](c1ccc(O)cc1O)CC2=O [kurarinone] was tested, and the “total voiding frequency for 3 hours” value ([1]; 5 mg/kg, vehicle 10.9±1.4) was 6.9±0.8, the “effect on voiding frequency” value ([1]; 0.5 and 5 mg/kg) was “reduced the voiding frequency for SHR in a dose-dependent manner” and the “TI+ fluorescence increase in library screening” value ([2]; 5 μM final concentration, compared to vehicle (1% DMSO), among 794 natural compounds) was “strongest fluorescence increase”. The “TI+-fluorescence enhancement (initial RFU increase)” value ([2]; 10 μM, n=4) was “strong fluorescence increase”, the “concentration dependence of TI+ fluorescence” value ([2]; 3, 5, 10, 30 μM) was “increased in a dose-dependent manner” and the “relaxation effect on ACh-induced contraction” value [3] was 58.2±6.2%.
